Laboratory results taken from PubChem BioAssay AID1347409 (Pan Lab, Icahn School of Medicine at Mount Sinai, 2020).
pEC50: −log10 of the molar value. Results filed as inconclusive are left out. Activity calls are given as the source filed them.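 The calls were made as follows: active = EC50 at or below 10 µM; inconclusive = EC50 above 10 and up to 20 µM; inactive = EC50 above 20 µM.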

Test system: MV4-11 apoptosis, Annexin V flow cytometry, 48 h
Experiment: MV4-11 leukemia cell apoptotic death – Annexin V, flow cytometry, dose response (AID 1347409)

Row | SMILES | EC50 | pEC50
1 | CCOC(=O)c1c(NC(=O)CCC(=O)O)sc(C)c1-c1ccc(CC(C)C)cc1 | 33.6 µM (inactive) | 
2 | NCCCSc1nc2c(c(=O)n1Cc1ccccc1)C1(CCCCC1)Cc1ccccc1-2 |  | 5.62
3 | Cc1ccc2c(c1)-c1c(c(C(=O)N3CCN(c4cc(C)ccc4C)CC3)nn1C)CS2 | 68.2 µM (inactive) | 
4 | CCOc1cccc2c1N[C@@H](c1ccc(C(=O)O)cc1)[C@H]1CC=C[C@@H]21 | 113 µM (inactive) | 
5 | CCNc1ccc(Br)cc(C(=O)/C=C/c2c(Cl)cccc2Cl)c1=O |  | 5.36
6 | CCOc1ccc2nc3cc(NC(=O)c4ccco4)ccc3c(N)c2c1 |  | 5.89
7 | CN(CCC(=O)C=Cc1ccc(Cl)c(Cl)c1)CCc1ccc2c(c1)OCO2 |  | 5.28
8 | COc1ccc(C=C2C(=O)N(Cc3ccco3)C(=O)N(C(C)C)C2=O)cc1 | 60 µM (inactive) | 
9 | Cc1ccc(NC(=O)c2ccc(Cl)cc2Cl)c(S(=O)(=O)O)c1 | 90.1 µM (inactive) | 
10 | CCCCCCCCCOc1ccc(C#CC(=O)O)cc1 | 32.4 µM (inactive) | 
11 | Cc1ccc([C@@H]2Nc3c(ccc(C(=O)O)c3C)[C@@H]3C=CC[C@@H]32)cc1 | 94.8 µM (inactive) | 
